Columns and labels:
[1] = test system: K. pneumoniae IS-007; assay: Colorimetric sensor array antibiotic susceptibility test on solid growth media; type: cell-based; settings: vs control without antibiotic
Description: (§1) To detect a microorganism by species and strain, a sample including the microorganism is placed in a container including culture medium and a colorimetric array, and the temporal response of the sensors to the metabolic products of the microorganism is monitored. Susceptibility can be assessed by inoculating a growth medium including a substance (e.g., an antibiotic) with a microorganism and monitoring the temporal response of the sensors while also monitoring the response of a control (e.g., no antibiotic).
FIG. 8 depicts container 800 configured for use to assess susceptibility of microorganisms. Container 800 includes base 802 and lid 804, with plates 806 positioned in base 802 opposite colorimetric sensor arrays 808 on lid 804. Microorganisms may be placed in contact with growth medium (e.g., a solid growth medium) in plates 806. A substance (e.g., a drug such as an antibiotic) may be added to the growth medium. In one example, rows and columns of plates 802 in container 800 may be used for different microorganisms, different substances (e.g., drugs effective to kill the microorganisms), or different concentrations of substances. After samples are loaded on plates 802, lid 804 is positioned over base 802, such that each colorimetric sensor array 808 is proximate a plate 806. Susceptibility is assessed via temporal response of the sensors in colorimetric sensor arrays. […]

[2] = test system: K. pneumoniae IS-020; settings: cited from earlier work
[3] = test system: K. pneumoniae IS-133; settings: cited from earlier work
[4] = test system: S. aureus IS-120; assay: Colorimetric sensor array antibiotic susceptibility test on solid growth media; type: cell-based
Description: as §1
(§2) FIG. 8 depicts container 800 configured for use to assess susceptibility of microorganisms. Container 800 includes base 802 and lid 804, with plates 806 positioned in base 802 opposite colorimetric sensor arrays 808 on lid 804. Microorganisms may be placed in contact with growth medium (e.g., a solid growth medium) in plates 806. A substance (e.g., a drug such as an antibiotic) may be added to the growth medium. In one example, rows and columns of plates 802 in container 800 may be used for different microorganisms, different substances (e.g., drugs effective to kill the microorganisms), or different concentrations of substances. After samples are loaded on plates 802, lid 804 is positioned over base 802, such that each colorimetric sensor array 808 is proximate a plate 806. Susceptibility is assessed via temporal response of the sensors in colorimetric sensor arrays. Container 800 can be positioned in an apparatus (e.g., apparatus 700) for automated assessment of susceptibility.
(§3) Susceptibility is indicated by a lack of metabolic products compared to controls (no antibiotic).
(§4) In another susceptibility test, three strains of S. aureus were inoculated onto the solid growth media. […] S. aureus IS-124 was susceptible to both antibiotics in agreement with known susceptibility information that this strain is susceptible to Oxacillin and Vancomycin.

[5] = test system: S. aureus IS-123; assay: as above; type: cell-based
Description: as §1, §2, §3, §4

[6] = test system: S. aureus IS-120; settings: cited from earlier work
[7] = test system: S. aureus IS-123; settings: cited from earlier work
[8] = test system: S. aureus IS-124; settings: concentration not given; cited from earlier work
[9] = test system: K. pneumoniae IS-007; settings: cited from earlier work
[10] = antibiotic at 1-2 ug/ml in solid growth media
[11] = antibiotic at 2 ug/ml in solid growth media

C[C@@H](O)[C@H]1C(=O)N2C(C(=O)O)=C(S[C@@H]3CN[C@H](C(=O)N(C)C)C3)[C@H](C)[C@H]12 [Meropenem]
susceptibility or resistance of the strain to the antibiotic ([1]; antibiotic at 1 ug/ml in solid growth media): susceptibility
concentration at which the strain is susceptible (known susceptibility information) [2]: < 0.25 µg/mL
concentration below which the strain is resistant (known) [3]: below 16 ug/ml

CN[C@H](CC(C)C)C(=O)N[C@H]1C(=O)N[C@@H](CC(N)=O)C(=O)N[C@H]2C(=O)N[C@H]3C(=O)N[C@H](C(=O)N[C@H](C(=O)O)c4cc(O)cc(O)c4-c4cc3ccc4O)[C@H](O)c3ccc(c(Cl)c3)Oc3cc2cc(c3O[C@@H]2O[C@H](CO)[C@@H](O)[C@H](O)[C@H]2O[C@H]2C[C@](C)(N)[C@H](O)[C@H](C)O2)Oc2ccc(cc2Cl)[C@H]1O [Vancomycin]
susceptibility or resistance of the strain to the antibiotic [4, 10]: susceptibility
susceptibility or resistance of the strain to the antibiotic [5, 10]: susceptibility
known susceptibility of the strain to the antibiotic ([6]; concentration not given): susceptible
known susceptibility of the strain to the antibiotic ([7]; concentration not given): susceptible
known susceptibility of the strain to the antibiotic [8]: susceptible

CO/N=C(\C(=O)N[C@@H]1C(=O)N2C(C(=O)[O-])=C(C[N+]3(C)CCCC3)CS[C@H]12)c1csc(N)n1 [Cefepime]
susceptibility or resistance of the strain to the antibiotic ([1]; antibiotic at 8 ug/ml in solid growth media): resistance
concentration at which the strain is susceptible (known susceptibility information) [9]: < 0.25 µg/mL
concentration below which the strain is resistant (known susceptibility information) [9]: below 64 ug/ml
concentration at which the strain is susceptible (known susceptibility information) [2]: < 1 µg/mL
concentration below which the strain is resistant (known) [3]: below 64 ug/ml

Cc1onc(-c2ccccc2)c1C(=O)N[C@@H]1C(=O)N2[C@@H]1SC(C)(C)[C@@H]2C(=O)O [Oxacillin]
susceptibility or resistance of the strain to the antibiotic [4, 11]: resistance
susceptibility or resistance of the strain to the antibiotic [5, 11]: resistance
concentration below which the strain is resistant (known susceptibility information) [6]: below 4 ug/ml
concentration below which the strain is resistant (known susceptibility information) [7]: below 4 ug/ml
known susceptibility of the strain to the antibiotic [8]: susceptible

Source: US9862985B2, “Identification and susceptibility of microorganisms by species and strain” (SPECIFIC TECHNOLOGIES LLC, priority 2012, dated 2018)
